Three compounds from paper PMC6562427, “A New Tyrosinase Inhibitor from the Red Alga Symphyocladia latiuscula (Harvey) Yamada (Rhodomelaceae)” (Marine Drugs, 2019) can be followed below.

For series [1], the target named is T1, tyrosinase in α-MSH-induced B16F10 melanoma cells (Mus musculus, UniProt P11344).
T1 construct: the supernatant was used as cellular tyrosinase solution; endogenous in cells; host or cells: B16F10 melanoma cells, α-MSH stimulated
T1 sequence (P11344 19-533): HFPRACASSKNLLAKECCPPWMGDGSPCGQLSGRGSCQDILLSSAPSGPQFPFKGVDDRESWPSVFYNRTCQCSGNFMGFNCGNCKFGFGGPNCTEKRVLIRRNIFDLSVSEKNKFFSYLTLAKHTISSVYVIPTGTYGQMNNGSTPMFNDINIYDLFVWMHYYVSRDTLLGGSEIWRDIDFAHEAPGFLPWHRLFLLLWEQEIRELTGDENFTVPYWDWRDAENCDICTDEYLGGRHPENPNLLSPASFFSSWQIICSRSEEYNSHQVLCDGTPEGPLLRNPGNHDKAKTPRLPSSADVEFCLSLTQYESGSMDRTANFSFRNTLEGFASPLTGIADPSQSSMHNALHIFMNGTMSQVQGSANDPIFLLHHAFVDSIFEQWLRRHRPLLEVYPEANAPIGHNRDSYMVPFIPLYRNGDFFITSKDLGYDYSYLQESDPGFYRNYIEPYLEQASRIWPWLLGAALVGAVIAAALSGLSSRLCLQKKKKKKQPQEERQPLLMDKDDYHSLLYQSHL
Kind of series: Cellular tyrosinase assay (L-DOPA oxidation). It counts as cell-based. Particulars: 5 µM α-MSH 48 h; for effect on intracellular tyrosinase activity: 6.25, 12.5 and 25 µM; for intracellular tyrosinase level: α-MSH alone 215.73%. As for the experimental part:
Intracellular tyrosinase inhibitory activity was evaluated by measuring the rate of oxidation of L-DOPA [57]. […] The cells were washed with PBS and lysed with a radio immunoprecipitation assay buffer. The cell lysates were kept in a deep freezer (−80 °C) for 1 h. After defrosting the cell lysates, the cellular extracts were purified by centrifugation at 14,000 rpm for 20 min at 4 °C, and the supernatant was used as cellular tyrosinase solution. A total of 80 µL of supernatant and 20 µL of L-DOPA (2 mg/mL) were added to a 96-well plate and incubated at 37 °C for 45 min. Dopachrome formation was then measured spectrophotometrically at 450 nm using a microplate spectrophotometer (Molecular Devices). Intracellular tyrosinase activity was calculated as the percentage of control.

Series [2] concerns B16F10 melanoma cells. Kind of series: Melanin content assay in α-MSH-stimulated cells. It is filed as cell-based, mouse. Particulars: for effect on melanin content: 6.25, 12.5 and 25 µM; for melanin content: α-MSH alone 151.72%. The method, then:
Intracellular melanin content was determined according to a previously reported procedure with minor modifications. Briefly, B16F10 cells were seeded in a 24-well plate at 2 × 10,000 cells/well and incubated for 24 h in DMEM containing 10% FBS. Cells were pretreated with 6.25, 12.5, and 25 μM test compounds for 1 h and stimulated with 5 μM α-MSH for 48 h. […] The cells were washed with PBS and dissolved in 1 N NaOH containing 10% DMSO by boiling at 80 °C for 30 min. The cell lysates were centrifuged at 14,000 rpm for 20 min, and absorbance of the supernatant was measured at 405 nm. Melanin content was determined by normalizing the absorbance with total protein content.

A short description of series [3]: Cell viability, MTT assay. It is filed as cell-based. To be noted: mouse. As for the experimental part: B16F10 mouse melanoma cells obtained from American Type Culture Collection (Manassas, VA, USA) were maintained in 10% FBS in high-glucose DMEM containing 100 U/mL penicillin and 100 μg/mL streptomycin at 37 °C in a humidified atmosphere with 5% CO2. Cytotoxicity was evaluated using a 3-(4,5-dimethylthiazol-2-yl)-2,5-diphenyltetrazolium bromide (MTT) assay. After 95% of confluence, B16F10 cells were seeded in a 96-well plate at 10,000 cells/well and incubated for 24 h in DMEM supplemented with 10% FBS. The cells were then fed fresh serum-free DMEM containing different concentrations (25 to 100 μM) of the test compounds and incubated for 48 h. After that, the cells were incubated with 100 μL of MTT at a concentration of […] in phosphate-buffered saline (PBS) for 2 h. Absorbance was measured at 490 nm by a microplate reader (Promega Corporation Instrument, USA) after 2 h of incubation. The viability of cells at 48 h upon co-treatment with α-MSH was evaluated by treating cells with 5 μM α-MSH 1 h after the treatment with test compounds.
Background: Tetrazolium dyes change colour on reduction, which living cells bring about.

The target in series [4] is T2, mushroom tyrosinase (Agaricus bisporus, UniProt C7FF04).
T2 construct: purchased Sigma Aldrich
T2 sequence (C7FF04 1-392): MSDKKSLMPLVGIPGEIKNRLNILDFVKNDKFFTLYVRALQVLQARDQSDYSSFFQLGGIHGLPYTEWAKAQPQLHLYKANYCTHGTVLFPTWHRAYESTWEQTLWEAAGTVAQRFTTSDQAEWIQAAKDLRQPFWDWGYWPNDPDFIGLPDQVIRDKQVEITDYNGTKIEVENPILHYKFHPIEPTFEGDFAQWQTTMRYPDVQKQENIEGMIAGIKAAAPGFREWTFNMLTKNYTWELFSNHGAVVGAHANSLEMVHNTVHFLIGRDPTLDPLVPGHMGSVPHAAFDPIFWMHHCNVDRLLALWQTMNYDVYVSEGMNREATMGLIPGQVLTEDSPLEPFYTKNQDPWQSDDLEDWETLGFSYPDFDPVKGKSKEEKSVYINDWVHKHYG
Put plainly: Mushroom tyrosinase inhibitory assay (spectrophotometric). It counts as biochemical. Particulars: mean ± SD, n = 3. As for the experimental part:
The inhibitory activity of mushroom tyrosinase was carried out using a spectrophotometric method described in [27] with slight modifications. […] Then, 20 µL of tyrosinase was added and incubated at room temperature for between 10 and 30 minutes. Absorbance was measured at 490 nm after incubation.

Series [5] concerns tyrosinase protein expression in α-MSH-stimulated B16F10 cells. Put plainly: Tyrosinase protein levels via western blotting. It is filed as cell-based, mouse. As for the experimental part: The cell suspensions were centrifuged at 16,000 × g for 5 min, and the cell pellets were lysed in a lysis buffer and incubated on ice for 10 min. The cell lysates were centrifuged at 16,000 × g for 10 min, and the supernatant (total protein) was normalized using a Bradford protein assay kit. Aliquots of protein were resolved by sodium dodecyl sulfate-polyacrylamide gel electrophoresis and transferred onto a nitrocellulose membrane. The membrane was blocked with 10% nonfat milk (w/v) in tris-buffered saline with tween (TBST) (0.1 M Tris-HCl, pH 7.5, 1.5 M NaCl, 1% Tween20) for 2 h and incubated for approximately 24 h with TYR primary antibody. The immunoblots were then incubated with appropriate secondary antibodies for 2 h and detected using an enhanced chemiluminescence detection kit.
A general note: Immunoblotting shows a protein as a band on a membrane.

In series [6] the target is T2, mushroom tyrosinase. Kind of series: Kinetic study against mushroom tyrosinase (Lineweaver-Burk and secondary plots). It counts as biochemical. As for the experimental part:
The inhibition type was determined using a Lineweaver–Burk plot. The apparent slope (Kmapp/Vmaxapp) and intercept (1/Vmaxapp) versus different inhibitor concentrations was used to determine the inhibition constant (Ki). Different kinetic parameters were obtained for different concentrations of the substrate (0.5, 0.75, and 1 mM) and inhibitors (compound 1—0.0, 4.0, 6.6, and 9.3 µM; compound 3—0, 2.5, 2.6, and 2.7 µM). Sigmaplot version 12.0 (SPSS Inc., Chicago, IL, USA) was employed to generate the plots.

Setting [7] is: IC50 L-Tyrosine, substrate L-tyrosine.

Where two headings read alike, the source gives them in different places.

By IC50 is commonly meant the concentration needed to halve the response being measured. As for `COCc1c(Br)c(O)c(O)c(Br)c1Br` [Compound 2, 2,3,6-tribromo-4,5-dihydroxybenzyl methyl ether], the “effect on intracellular tyrosinase activity” value in series [1] is “did not show a significant reduction”. Moreover, the “effect on melanin content” value in series [2] (5 µM α-MSH 48 h) is recorded as “no significant reduction”. Besides, the viability at 48 h, 100 µM in series [3] (100 µM, 48 h, MTT, read-out: viable cells) was around 100%. For the same compound, the 50% inhibitory concentration (IC50) in series [4] (IC50 L-DOPA, substrate L-DOPA) was above 300 µM; in series [4] (setting [7]), 113.9 ± 0.75 µM. The tyrosinase protein expression result in series [5] (6.25, 12.5 and 25 μM, 48 h) is “did not reduce expression”.
On to `OC[C@H]1O[C@@H](Oc2ccc(O)cc2)[C@H](O)[C@@H](O)[C@@H]1O` [Arbutin, reference compound], for which, in series [1] (500 µM), the intracellular tyrosinase level was determined as 130.75%. The compound also had a melanin content in series [2] (500 µM, 5 µM α-MSH 48 h) of 124.06%. The tyrosinase protein expression entry in series [5] (arbutin pre-treatment (positive control)) was “significantly reduced the expression levels”.
As usually defined, the Ki is the equilibrium dissociation constant of an inhibitor or competing ligand from its target. In turn, `Oc1c(O)c(Br)c(COCc2c(Br)c(O)c(O)c(Br)c2Br)c(Br)c1Br` [Compound 3, bis-(2,3,6-tribromo-4,5-dihydroxybenzylmethyl ether)] gave an intracellular tyrosinase level in series [1] (25 µM) of 94.81%. Also, the “effect on intracellular tyrosinase activity” value in series [1] is “decreased in a dose-dependent manner”. Also, the melanin content in series [2] (25 µM, pretreated 1 h then 5 µM α-MSH 48 h) worked out at 98.68%. Moreover, in series [2] (5 µM α-MSH 48 h), the “effect on melanin content” value was “reduced the melanin content in a dose-dependent manner”. In series [3], this compound displayed a viability at 48 h, 100 µM of 86.9%. Also, the concentration for half-maximal inhibition (IC50) came out at 111 ± 4.95 µM in series [4] (IC50 L-DOPA, substrate L-DOPA) and 2.92 ± 0.04 µM in series [4] (setting [7]). Moreover, in series [6], the inhibitory constant (Ki) was 1.98 µM. Moreover, in series [6] (substrate L-tyrosine, from Lineweaver-Burk plots), the “Inhibition Type” value is “competitive-type inhibition”. Also, the tyrosinase protein expression entry in series [5] (6.25, 12.5 and 25 μM, 48 h) is reported as “inhibited α-MSH-induced accumulation of tyrosinase proteins in a concentration-dependent manner”.
